Experimental data from US20260241012A1, “1,8-NAPHTHYRIDIN-2-ONE HETEROBIFUNCTIONAL BCL6 DEGRADERS” (Treeline Biosciences, Inc., priority 2022, published 2026).

Biological target: T1, N-terminal HiBiT tagged BCL6 (Homo sapiens, UniProt P41182)
T1 construct: expressed in transfected cells; host or cells: HT1080 (ATCC CCL-121), stably transduced with lentivirus pLV-UBC-N-HiBiT-BCL6-PGK-puro
Assay: HiBiT based degradation assay
Assay type: cell-based
Settings: HT1080 cells expressing N-terminal HiBiT tagged BCL6, 5 hours of incubation; for Ymin (5 hr): BCL6 degradation normalized with DMSO control; for DC50: four-parameter logistic model, read-out: EC50 (5 hr)
Source text: Human BCL6 protein coding open reading frame fused with N-terminal HiBiT coding sequence was synthesized from Integrated DNA Technologies (IDT). Next, the N-HiBiT-BCL6 sequence was cloned into pLV-UBC-PGK-Puro, a lentivirus plasmid purchased from Vectorbuilder, to generate pLV-UBC-N-HiBiT-BCL6-PGK-puro. Lentiviral particles were generated from Lenti-X™ 293T cells (Clontech) by co-transfection of pLV-UBC-N-HiBiT-BCL6-PGK-puro plasmids and lentiviral packaging plasmid mix (Cellecta). HT1080 [HT1080] (ATCC CCL-121) cells were infected with the lentivirus, and HT1080 cells stably integrated with the lentiviral vectors were established by incubation with 1 μg/mL puromycin (Thermofisher).
HT1080 cells expressing N-terminal HiBiT tagged BCL6 were dispensed into a 384-well plate pre-spotted with compounds at varying concentrations. Five thousand cells were seeded into each well in 40 μL of RPMI 1640 media plus 10% Fetal Bovine Serum (10082-147, Thermofisher). After 5 hours of incubation at 37° C. with 5% CO2, 30 μL of the NANO-GLOR HiBiT Lytic Detection System working solution (Promega) was added to each well and incubated at room temperature for 15 min. After incubation, luminescence was read on a PHERAstar FSX Plate Reader (BMG). BCL6 degradation at each indicated concentration was normalized with DMSO control. The BCL6 degradation curves were plotted using a four-parameter logistic model.

SMILES	Ymin (5 hr)	DC50
CNC(=O)COc1cc2cc(Nc3nc(N4CCC5(CCN(CC6CCN(c7cccc8c(C9CCC(=O)NC9=O)nn(C)c78)CC6)CC5)CC4)ncc3Cl)cnc2n(C)c1=O (stereo not drawn) [Compound 113, 2-((6-((5-chloro-2-(9-((1-(3-(2,6-dioxopiperidin-3-yl)-1-methyl-1H-indazol-7-yl)piperidin-4-yl)methyl)-3,9-diazaspiro[5.5]undecan-3-yl)pyrimidin-4-yl)amino)-1-methyl-2-oxo-1,2-dihydro-1,8-naphthyridin-3-yl)oxy)-N-methylacetamide]	++++ (Ymin < 30%)	10 to 100 nM
CNC(=O)COc1cc2cc(Nc3nc(N4CC[C@H](CN5CCN(c6cccc7c(C8CCC(=O)NC8=O)nn(C)c67)CC5)[C@@H](F)C4)ncc3Cl)cnc2n(C(C)C)c1=O (relative stereo) [Compound 238b, 2-((6-((5-chloro-2-((3R,4R)-4-((4-(3-(2,6-dioxopiperidin-3-yl)-1-methyl-1H-indazol-7-yl)piperazin-1-yl)methyl)-3-fluoropiperidin-1-yl)pyrimidin-4-yl)amino)-1-isopropyl-2-oxo-1,2-dihydro-1,8-naphthyridin-3-yl)oxy)-N-methylacetamide]	++++ (Ymin < 30%)	10 to 100 nM
CNC(=O)COc1cc2cc(Nc3nc(N4CCN(CC5CCN(c6cccc7c(C8CCC(=O)NC8=O)nn(C)c67)CC5)[C@@H](CO)C4)ncc3Cl)cnc2n(C(C)C)c1=O (stereo partly drawn) [Compound 146b, 2-((6-((5-chloro-2-((3R)-4-((1-(3-(2,6-dioxopiperidin-3-yl)-1-methyl-1H-indazol-7-yl)piperidin-4-yl)methyl)-3-(hydroxymethyl)piperazin-1-yl)pyrimidin-4-yl)amino)-1-isopropyl-2-oxo-1,2-dihydro-1,8-naphthyridin-3-yl)oxy)-N-methylacetamide]	++++ (Ymin < 30%)	10 to 100 nM
CNC(=O)COc1cc2cc(Nc3nc(N4CC[C@H](CNc5cccc6c(C7CCC(=O)NC7=O)nn(C)c56)C4)ncc3Cl)cnc2n(C)c1=O (stereo partly drawn) [Compound 122a, 2-((6-((5-chloro-2-((3R)-3-(((3-(2,6-dioxopiperidin-3-yl)-1-methyl-1H-indazol-7-yl)amino)methyl)pyrrolidin-1-yl)pyrimidin-4-yl)amino)-1-methyl-2-oxo-1,2-dihydro-1,8-naphthyridin-3-yl)oxy)-N-methylacetamide]	++ (50% ≤ Ymin < 70%)	10 to 100 nM
CNC(=O)COc1cc2cc(Nc3nc(N4CCC(OC5CCN(c6cccc7c(C8CCC(=O)NC8=O)nn(C)c67)CC5)CC4)ncc3Cl)cnc2n(C(C)C)c1=O (stereo not drawn) [Compound 225, 2-[[6-[[5-chloro-2-[4-[[1-[3-(2,6-dioxo-3-piperidyl)-1-methyl-indazol-7-yl]-4-piperidyl]oxy]-1-piperidyl]pyrimidin-4-yl]amino]-1-isopropyl-2-oxo-1,8-naphthyridin-3-yl]oxy]-N-methyl-acetamide]	++++ (Ymin < 30%)	10 to 100 nM
CNC(=O)COc1cc2cc(Nc3nc(N4CCN(C(=O)N5CCN(c6cccc7c(C8CCC(=O)NC8=O)nn(C)c67)CC5)CC4)ncc3Cl)cnc2n(C(C)C)c1=O (stereo not drawn) [Compound 223, 2-[[6-[[5-chloro-2-[4-[4-[3-(2,6-dioxo-3-piperidyl)-1-methyl-indazol-7-yl]piperazine-1-carbonyl]piperazin-1-yl]pyrimidin-4-yl]amino]-1-isopropyl-2-oxo-1,8-naphthyridin-3-yl]oxy]-N-methyl-acetamide]	++++ (Ymin < 30%)	< 10 nM
CNC(=O)COc1cc2cc(Nc3cc(N4CCC(CN5CCN(c6cccc7c(C8CCC(=O)NC8=O)nn(C)c67)CC5)CC4)ncc3Cl)cnc2n(C(C)C)c1=O (stereo not drawn) [Compound 152, 2-((6-((5-chloro-2-(4-((4-(3-(2,6-dioxopiperidin-3-yl)-1-methyl-1H-indazol-7-yl)piperazin-1-yl)methyl)piperidin-1-yl)pyridin-4-yl)amino)-1-isopropyl-2-oxo-1,2-dihydro-1,8-naphthyridin-3-yl)oxy)-N-methylacetamide]	+++ (30% ≤ Ymin < 50%)	10 to 100 nM
CNC(=O)COc1cc2cc(Nc3nc(N4CCC(CN5CCN(c6cccc7c(C8CCC(=O)NC8=O)nn(C)c67)[C@H](C)C5)CC4)ncc3F)cnc2n(C(C)C)c1=O (stereo partly drawn) [Compound 210b, 2-[[6-[[2-[4-[[(3R)-4-[3-(2,6-dioxo-3-piperidyl)-1-methyl-indazol-7-yl]-3-methyl-piperazin-1-yl]methyl]-1-piperidyl]-5-fluoro-pyrimidin-4-yl]amino]-1-isopropyl-2-oxo-1,8-naphthyridin-3-yl]oxy]-N-methyl-acetamide]	++++ (Ymin < 30%)	10 to 100 nM
CNC(=O)COc1cc2cc(Nc3nc(N4CCC5(CCC(CN6CCC(c7ccc8c(C9CCC(=O)NC9=O)nn(C)c8c7F)CC6)CC5)CC4)ncc3Cl)cnc2n(C(C)C)c1=O (stereo not drawn) [Compound 240, 2-((6-((5-chloro-2-(9-((4-(3-(2,6-dioxopiperidin-3-yl)-7-fluoro-1-methyl-1H-indazol-6-yl)piperidin-1-yl)methyl)-3-azaspiro[5.5]undecan-3-yl)pyrimidin-4-yl)amino)-1-isopropyl-2-oxo-1,2-dihydro-1,8-naphthyridin-3-yl)oxy)-N-methylacetamide]	++++ (Ymin < 30%)	10 to 100 nM
CNC(=O)COc1cc2cc(Nc3nc(N4CCC(CN5CCN(c6ccc7c(C8CCC(=O)NC8=O)nn(C)c7c6)C[C@H]5CO)CC4)ncc3Cl)cnc2n(C(C)C)c1=O (stereo partly drawn) [Compound 232a, 2-[[6-[[5-chloro-2-[4-[[(2S)-4-[3-(2,6-dioxo-3-piperidyl)-1-methyl-indazol-6-yl]-2-(hydroxymethyl)piperazin-1-yl]methyl]-1-piperidyl]pyrimidin-4-yl]amino]-1-isopropyl-2-oxo-1,8-naphthyridin-3-yl]oxy]-N-methyl-acetamide]	+++ (30% ≤ Ymin < 50%)	< 10 nM
CNC(=O)COc1cc2cc(Nc3nc(N4CCC(CN5CCN(c6ccc7c(C8CCC(=O)NC8=O)nn(C)c7c6)C[C@@H]5CO)CC4)ncc3Cl)cnc2n(C(C)C)c1=O (stereo partly drawn) [Compound 232b, 2-[[6-[[5-chloro-2-[4-[[(2R)-4-[3-(2,6-dioxo-3-piperidyl)-1-methyl-indazol-6-yl]-2-(hydroxymethyl)piperazin-1-yl]methyl]-1-piperidyl]pyrimidin-4-yl]amino]-1-isopropyl-2-oxo-1,8-naphthyridin-3-yl]oxy]-N-methyl-acetamide]	+++ (30% ≤ Ymin < 50%)	< 10 nM
CNC(=O)COc1cc2cc(Nc3nc(N4C[C@H]5C[C@@H]4CN5CC4CCN(c5cccc6c(C7CCC(=O)NC7=O)nn(C)c56)CC4)ncc3Cl)cnc2n(C(C)C)c1=O (stereo partly drawn) [Compound 174a, 2-[[6-[[5-chloro-2-[(1R,4R)-5-[[1-[3-(2,6-dioxo-3-piperidyl)-1-methyl-indazol-7-yl]-4-piperidyl]methyl]-2,5-diazabicyclo[2.2.1]heptan-2-yl]pyrimidin-4-yl]amino]-1-isopropyl-2-oxo-1,8-naphthyridin-3-yl]oxy]-N-methyl-acetamide]	++ (50% ≤ Ymin < 70%)	< 10 nM
